Source: patent publication US10758516B2, “Methods and compositions for the treatment of gliomas” (University of Cincinnati, priority 2017, dated 2020)

What was measured:
EP2 receptor [1] = target: T1, EP2 receptor (Homo sapiens, UniProt P43116); assay: PGE2-mediated cAMP signaling in SF767 glioma cells; assay type: cell-based; conditions: for PGE2-promoted cAMP synthesis: antagonist 1 μM and 10 μM, n=5
T1 construct: endogenous in cells; host or cells: SF767 human glioblastoma cells
Source text: (§1) FIG. 1. Bar graph showing PGE2 mediated cAMP signaling via EP2 receptor in human malignant glioma cells LN229 (top) and SF767 (bottom).
(§2) (n=5, *P<0.05; ***P<0.001, one-way ANOVA and post-hoc Bonferroni test). Data are shown as mean+SEM.

EP2 receptor [2] = target: T1, EP2 receptor; assay: PGE2-mediated cAMP signaling in LN229 glioma cells; assay type: cell-based; conditions: for PGE2-promoted cAMP synthesis: antagonist 1 μM and 10 μM, n=5
Source text: as §1, §2

GBM cells LN229 = assay: Wound closure (migration) of COX-2-overexpressing LN229 cells; assay type: cell-based, human; conditions: 10 μM, n=3, compared with COX-2 overexpression group
human GBM cells SF767 = assay: Cell invasion of COX-2-overexpressing SF767 cells; assay type: cell-based; conditions: 10 μM, measured after 48 h, n=4, P<0.01 vs control
[3] = system: intracranial tumors formed by human GBM cells LN229; assay: Intracranial (orthotopic) tumor xenograft in athymic nude mice; assay type: in vivo
Source text: FIG. 8. Graph showing that the survival rate of mice harboring intracranial tumors derived from human GBM cells LN229 receiving TG6-10-1 is greater than the survival rate of mice receiving vehicle only.
Data are shown as mean±SEM.
Survival rates of mice that harbored intracranial tumors derived from human GBM cells LN229 after receiving vehicle (n=20) or TG6-10-1 (n=28) for 28 days (P=2.835E-4 Kaplan-Meier survival analysis with post-hoc log-rank test).

[4] = system: flank tumors formed by human GBM cells SF767; assay: Flank (subcutaneous) tumor xenograft in athymic nude mice; assay type: in vivo; conditions: 10 mg/kg, p.o., b.i.d.; measured 4 weeks after xenograft surgery; n=7, P<0.05
Source text: FIG. 4. Bar graph comparing flank tumor size in athymic nude mice treated with vehicle versus mice treated with TG6-10-1 measured 4 weeks after xenograft surgery.
Data are shown as mean+SEM.

[5] = concentration-dependent, forskolin 100 μM

T1 sequence (P43116 whole entry): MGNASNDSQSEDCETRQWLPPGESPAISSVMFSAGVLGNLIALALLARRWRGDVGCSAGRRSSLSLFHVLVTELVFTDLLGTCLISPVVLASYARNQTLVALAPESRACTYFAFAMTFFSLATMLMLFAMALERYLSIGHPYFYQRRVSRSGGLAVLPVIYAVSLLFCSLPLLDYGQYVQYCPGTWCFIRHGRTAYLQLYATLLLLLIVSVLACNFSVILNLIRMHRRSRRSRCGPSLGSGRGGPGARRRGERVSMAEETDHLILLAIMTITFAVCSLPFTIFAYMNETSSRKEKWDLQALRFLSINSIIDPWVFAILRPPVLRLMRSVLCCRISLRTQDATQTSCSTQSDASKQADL

Structure (SMILES)	cAMP levels (EP2 receptor [1]; [5])	cAMP levels (EP2 receptor [2]; [5])	PGE2-promoted cAMP synthesis (EP2 receptor [1])	PGE2-promoted cAMP synthesis (EP2 receptor [2])	wound closure increased by COX-2 overexpression (GBM cells LN229)	cell invasion increased by COX-2 overexpression (human GBM cells SF767)	growth of intracranial tumors ([3]; 10 mg/kg, p.o., b.i.d., bioluminescence weekly, n=7, P<0.01)	survival of mice harboring intracranial tumors ([3]; treatment for 28 days, vehicle n=20, TG6-10-1 n=28, P=2.835E-4, Kaplan-Meier, log-rank)	growth of flank tumors [4]
CCCCC[C@H](O)/C=C/[C@H]1[C@H](O)CC(=O)[C@@H]1C/C=C\CCCC(=O)O [PGE2, Prostaglandin E2, reference compound]	increases cAMP levels	increases cAMP levels							
COc1cc(/C=C/C(=O)NCCn2c(C)cc3ccccc32)cc(OC)c1OC [TG4-155]			largely blocked	largely blocked	attenuated	attenuated			
COc1cc(/C=C/C(=O)NCCn2c(C(F)(F)F)cc3ccccc32)cc(OC)c1OC [TG6-10-1]			largely blocked	largely blocked	attenuated	attenuated	reduced the growth	improved survival	reduced the growth
